Target: hDGAT2 (Homo sapiens (Human), UniProt Q96PD7)
Experiment: DGAT2 Enzymatic Activity Assay (triolein formation, LC/MS/MS)
Format: biochemical
Conditions: Sf-9 membrane prep expressing hDGAT2; 25 μM diolein, 10 μM oleoyl-CoA; room temperature; read-out: IC50 values for inhibition of DGAT2
Procedure: In Vitro DGAT2 ASSAYS and Determination of IC50 Values for DGAT2 Inhibitors
Insect Cell Expression and Membrane Preparation
Sf-9 insect cells were maintained in Grace's insect cell culture medium with 10% heated-inactivated fetal bovine serum, 1% Pluronic F-68 and 0.14 μg/ml Kanamycine sulfate in Erlenmeyer flasks at 28° C. in a shaker incubator. After infection with untagged hDGAT2 baculovirus at multiplicity of infection (MOI) 0.1 for 48 hours, cells were harvested. Cell pellets were suspended in buffer containing 10 mM Tris-HCl (pH 7.5), 1 mM EDTA (pH 8.0), 250 mM sucrose and Complete Protease Inhibitor Cocktail (Roche Diagnostics Corp., Indianapolis, Ill.), and sonicated on ice. Membrane fractions were isolated by ultracentrifugation (100,000× g pellet), resuspended in the same buffer, and frozen (−80° C.) for later use. The protein concentration was determined with the BCA Protein Assay kit (Pierce Biotechnology Inc., Rockford, Ill.). Expression of protein levels was analyzed by immunoblotting with goat polyclonal DGAT2 antibody C-15 and donkey anti-goat IgG HRP (Santa Cruz Biotechnology, Inc., Santa Cruz, Calif.) followed by detection with ECL reagent (GE Healthcare, Piscataway, N.J.).
LC/MS/MS analyses were performed using Thermal Fisher's LX4-TSQ Vantage system. This system consists of an Agilent binary high-performance liquid chromatography (HPLC) pumps and a TSQ Vantage triple quadrupole MS/MS instrument. For each sample, 2 μL samples from the top organic layer of in-plate liquid-liquid extraction were injected onto a Thermo Betabasic C4 column (2.1 mm×20 mm, 5 μm particle size). The samples were then eluted using the following conditions; mobile phase: methanol/water with 0.1% ammonium format=92/8 (v/v), flow rate: 1 mL/min, temperature: 25° C. Data was acquired in positive mode using a heated electrospray ionization (HESI) interface. The operational parameters for the TSQ Vantage MS/MS instrument were a spray voltage of 3000 V, capillary temperature of 280° C., vaporizer temperature 400° C., shealth gas 60 arbitrary unit, Aux gas 40 arbitrary units, S-lens 113 and collision gas 0.16 Pascals. […] (SRM) chromatograms of triolein (Q1: 902.9>Q3:602.3) and internal standard (Q1: 902.9>Q3:602.3) were collected for 40 sec. The peak area was integrated by Xcalibur Quan software. The ratio between the triolein generated in the reaction and spiked in internal standard were used to generate percentage inhibition and IC50 values. Compound percentage inhibition was calculated by the following formula: Inhibition %=1−[(compound response−low control)/(high control−low control)]×100%. Potent compounds were titrated and IC50 were calculated by 4 parameter sigmoidal curve fitting formula.
DGAT2 Enzymatic Activity Assay
DGAT2 activity was determined by measuring the amount of enzymatic product triolein (1,2,3-Tri(cis-9-octadecenoyl)glycerol) using the membrane prep mentioned above. The assay was carried out in deep well 384 plates in a final volume of 40 μL at room temperature. The assay mixture contained the following: assay buffer (100 mM Tris·Cl, pH 7.0, 20 mM MgCl2, 5% ethanol), 25 μM of diolein, 10 μM of oleoyl-CoA and 10 ng/μL of DGAT2 membrane.

hDGAT2, sequence (Q96PD7 whole entry): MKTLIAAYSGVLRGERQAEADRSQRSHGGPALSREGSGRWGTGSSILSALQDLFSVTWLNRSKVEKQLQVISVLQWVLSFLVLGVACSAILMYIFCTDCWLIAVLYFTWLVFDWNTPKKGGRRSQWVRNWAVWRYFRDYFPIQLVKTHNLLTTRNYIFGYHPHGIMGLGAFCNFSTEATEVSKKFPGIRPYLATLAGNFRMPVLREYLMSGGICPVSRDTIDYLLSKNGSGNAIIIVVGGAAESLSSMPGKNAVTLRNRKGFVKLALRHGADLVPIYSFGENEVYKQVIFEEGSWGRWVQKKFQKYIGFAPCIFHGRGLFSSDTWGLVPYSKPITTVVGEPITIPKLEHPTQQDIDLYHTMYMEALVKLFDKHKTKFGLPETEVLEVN

In order of falling IC50:
1. Cc1sc(-c2ccccc2)nc1CNC(=O)c1ccc(-c2cccc(C(F)(F)F)c2)c2c1CN(C(=O)NC(C)(C)C)CC2 [Example 32, N^2-(tert-butyl)-N^8-((5-methyl-2-phenylthiazol-4-yl)methyl)-5-(3-(trifluoromethyl)phenyl)-3,4-dihydroisoquinoline-2,8(1H)-dicarboxamide]  539 nM
2. Cc1cc(C)n(CCNC(=O)c2ccc(-c3cccc(C(F)(F)F)c3)c3c2CN(C(=O)NC(C)(C)C)CC3)n1 [Example 31, N^2-(tert-butyl)-N^8-(2-(3,5-dimethyl-1H-pyrazol-1-yl)ethyl)-5-(3-(trifluoromethyl)phenyl)-3,4-dihydroisoquinoline-2,8(1H)-dicarboxamide]  505 nM
3. CC(C)(C)NC(=O)N1CCc2c(-c3cccc(C(F)(F)F)c3)ccc(C(=O)NCc3cnn4ccccc34)c2C1 [Example 30, N^2-(tert-butyl)-N^8-(pyrazolo[1,5-a]pyridin-3-ylmethyl)-5-(3-(trifluoromethyl)phenyl)-3,4-dihydroisoquinoline-2,8(1H)-dicarboxamide]  351 nM
4. CC(C)(C)NC(=O)N1CCc2c(-c3cccc(C(F)(F)F)c3)ccc(C(=O)NCCc3cscn3)c2C1 [Example 29, N^2-(tert-butyl)-N^8-(2-(thiazol-4-yl)ethyl)-5-(3-(trifluoromethyl)phenyl)-3,4-dihydroisoquinoline-2,8(1H)-dicarboxamide]  329 nM
5. CC(C)(C)NC(=O)N1CCc2c(-c3cccc(C(F)(F)F)c3)ccc(C(=O)NCc3conc3C#N)c2C1 [Example 27, N^2-(tert-butyl)-N^8-((3-cyanoisoxazol-4-yl)methyl)-5-(3-(trifluoromethyl)phenyl)-3,4-dihydroisoquinoline-2,8(1H)-dicarboxamide]  314 nM
6. CC(C)(C)NC(=O)N1CCc2c(-c3cccc(C(F)(F)F)c3)ccc(C(=O)NCc3ccnc4ccccc34)c2C1 [Example 26, N^2-(tert-butyl)-N^8-(quinolin-4-ylmethyl)-5-(3-(trifluoromethyl)phenyl)-3,4-dihydroisoquinoline-2,8(1H)-dicarboxamide]  292 nM
7. Cc1nn2cc(CCNC(=O)c3ccc(-c4cccc(C(F)(F)F)c4)c4c3CN(C(=O)NC(C)(C)C)CC4)nc2s1 [Example 25, N^2-(tert-butyl)-N^8-(2-(2-methylimidazo[2,1-b][1,3,4]thiadiazol-6-yl)ethyl)-5-(3-(trifluoromethyl)phenyl)-3,4-dihydroisoquinoline-2,8(1H)-dicarboxamide]  271 nM
8. CC(C)(C)NC(=O)N1CCc2c(-c3cccc(C(F)(F)F)c3)ccc(C(=O)NCc3nccc4cccnc34)c2C1 [Example 24, N^8-((1,7-naphthyridin-8-yl)methyl)-N^2-(tert-butyl)-5-(3-(trifluoromethyl)phenyl)-3,4-dihydroisoquinoline-2,8(1H)-dicarboxamide]  265 nM
9. CC(C)(C)NC(=O)N1CCc2c(-c3cccc(C(F)(F)F)c3)ccc(C(=O)NCCc3cn4ccccc4n3)c2C1 [Example 23, N^2-(tert-butyl)-N^8-(2-(imidazo[1,2-a]pyridin-2-yl)ethyl)-5-(3-(trifluoromethyl)phenyl)-3,4-dihydroisoquinoline-2,8(1H)-dicarboxamide]  244 nM
10. CC(C)(C)NC(=O)N1CCc2c(-c3cccc(OC(F)(F)F)c3)ccc(C(=O)NCc3nccc4ccccc34)c2C1 [Example 22, N^2-(tert-butyl)-N^8-(isoquinolin-1-ylmethyl)-5-(3-(trifluoromethoxy)phenyl)-3,4-dihydroisoquinoline-2,8(1H)-dicarboxamide]  235 nM
11. Cn1c(CCNC(=O)c2ccc(-c3cccc(C(F)(F)F)c3)c3c2CN(C(=O)NC(C)(C)C)CC3)nc2ccccc21 [Example 20, N^2-(tert-butyl)-N^8-(2-(1-methyl-1H-benzo[d]imidazol-2-yl)ethyl)-5-(3-(trifluoromethyl)phenyl)-3,4-dihydroisoquinoline-2,8(1H)-dicarboxamide]  205 nM
12. CC(C)(C)NC(=O)N1CCc2c(-c3cccc(C(F)(F)F)c3)ccc(C(=O)NCc3nccc4ccccc34)c2C1 [Example 19, N^2-(tert-butyl)-N^8-(isoquinolin-1-ylmethyl)-5-(3-(trifluoromethyl)phenyl)-3,4-dihydroisoquinoline-2,8(1H)-dicarboxamide]  197 nM
13. CC(C)(C)NC(=O)N1CCc2c(-c3cccc(C(F)(F)F)c3)ccc(C(=O)NCCc3cn4ccsc4n3)c2C1 [Example 18, N^2-(tert-butyl)-N^8-(2-(imidazo[2,1-b]thiazol-6-yl)ethyl)-5-(3-(trifluoromethyl)phenyl)-3,4-dihydroisoquinoline-2,8(1H)-dicarboxamide]  133 nM
14. CC(C)(C)NC(=O)N1CCc2c(-c3cccc(C(F)(F)F)c3)ccc(C(=O)NCc3ccc4nonc4c3)c2C1 [Example 17, N^8-(benzo[c][1,2,5]oxadiazol-5-ylmethyl)-N^2-(tert-butyl)-5-(3-(trifluoromethyl)phenyl)-3,4-dihydroisoquinoline-2,8(1H)-dicarboxamide]  132 nM
15. CC(C)(C)NC(=O)N1CCc2c(-c3cccc(C(F)(F)F)c3)ccc(C(=O)NCc3cccc4ncccc34)c2C1 [Example 16, N^2-(tert-butyl)-N^8-(quinolin-5-ylmethyl)-5-(3-(trifluoromethyl)phenyl)-3,4-dihydroisoquinoline-2,8(1H)-dicarboxamide]  126 nM
16. Cc1nc2ccccn2c1CNC(=O)c1ccc(-c2cccc(C(F)(F)F)c2)c2c1CN(C(=O)NC(C)(C)C)CC2 [Example 15, N^2-(tert-butyl)-N^8-((2-methylimidazo[1,2-a]pyridin-3-yl)methyl)-5-(3-(trifluoromethyl)phenyl)-3,4-dihydroisoquinoline-2,8(1H)-dicarboxamide]  120 nM
17. Cc1ccc2[nH]c(CCNC(=O)c3ccc(-c4cccc(C(F)(F)F)c4)c4c3CN(C(=O)NC(C)(C)C)CC4)nc2c1 [Example 14, N^2-(tert-butyl)-N^8-(2-(5-methyl-1H-benzo[d]imidazol-2-yl)ethyl)-5-(3-(trifluoromethyl)phenyl)-3,4-dihydroisoquinoline-2,8(1H)-dicarboxamide]  103 nM
18. COc1ccc2nc(CCNC(=O)c3ccc(-c4cccc(OC(F)(F)F)c4)c4c3CN(C(=O)NC(C)(C)C)CC4)[nH]c2c1 [Example 13, N^2-(tert-butyl)-N^8-(2-(6-methoxy-1H-benzo[d]imidazol-2-yl)ethyl)-5-(3-(trifluoromethoxy)phenyl)-3,4-dihydroisoquinoline-2,8(1H)-dicarboxamide]  68.9 nM
19. CC(C)(C)NC(=O)N1CCc2c(-c3cccc(C(F)(F)F)c3)ccc(C(=O)NCc3cccc4cnccc34)c2C1 [Example 12, N^2-(tert-butyl)-N^8-(isoquinolin-5-ylmethyl)-5-(3-(trifluoromethyl)phenyl)-3,4-dihydroisoquinoline-2,8(1H)-dicarboxamide]  68.6 nM
20. CC(C)(C)NC(=O)N1CCc2c(-c3cccc(C(F)(F)F)c3)ccc(C(=O)NCc3cccc4cccnc34)c2C1 [Example 11]  67.6 nM
21. CC(C)(C)NC(=O)N1CCc2c(-c3cccc(C(F)(F)F)c3)ccc(C(=O)NCc3cncc4ccccc34)c2C1 [Example 10, N^2-(tert-butyl)-N^8-(isoquinolin-4-ylmethyl)-5-(3-(trifluoromethyl)phenyl)-3,4-dihydroisoquinoline-2,8(1H)-dicarboxamide]  66.9 nM
22. CC(C)(C)NC(=O)N1CCc2c(-c3cccc(C(F)(F)F)c3)ccc(C(=O)NCCc3nc4ccccc4[nH]3)c2C1 [Example 9, N^8-(2-(1H-benzo[d]imidazol-2-yl)ethyl)-N^2-(tert-butyl)-5-(3-(trifluoromethyl)phenyl)-3,4-dihydroisoquinoline-2,8(1H)-dicarboxamide]  51.1 nM
23. CC(C)(C)NC(=O)N1CCc2c(-c3cccc(C(F)(F)F)c3)ccc(C(=O)NCCc3nc4ccc(F)cc4[nH]3)c2C1 [Example 8, N^2-(tert-butyl)-N^8-(2-(5-fluoro-1H-benzo[d]imidazol-2-yl)ethyl)-5-(3-(trifluoromethyl)phenyl)-3,4-dihydroisoquinoline-2,8(1H)-dicarboxamide]  32.9 nM

Reference: patent US9877957B2, “Tetrahydroisoquinoline derivatives useful as inhibitors of diacylglyceride O-acyltransferase 2” (Merck Sharp & Dohme Corp., priority 2014, dated 2018)
